20 compounds from US20230099293A1, “OGA INHIBITOR COMPOUNDS” (priority 2019, published 2023) can be followed below.

SMILES strings stand for the structures.

Data set [1] deals with T1, recombinant human Meningioma Expressed Antigen 5 (MGEA5), also referred to as O-GlcNAcase (OGA) (Homo sapiens, UniProt O60502).
T1 construct: Full length OGA enzyme was purchased at OriGene (cat #TP322411); purchased OriGene TP322411
T1 sequence (O60502 1-916): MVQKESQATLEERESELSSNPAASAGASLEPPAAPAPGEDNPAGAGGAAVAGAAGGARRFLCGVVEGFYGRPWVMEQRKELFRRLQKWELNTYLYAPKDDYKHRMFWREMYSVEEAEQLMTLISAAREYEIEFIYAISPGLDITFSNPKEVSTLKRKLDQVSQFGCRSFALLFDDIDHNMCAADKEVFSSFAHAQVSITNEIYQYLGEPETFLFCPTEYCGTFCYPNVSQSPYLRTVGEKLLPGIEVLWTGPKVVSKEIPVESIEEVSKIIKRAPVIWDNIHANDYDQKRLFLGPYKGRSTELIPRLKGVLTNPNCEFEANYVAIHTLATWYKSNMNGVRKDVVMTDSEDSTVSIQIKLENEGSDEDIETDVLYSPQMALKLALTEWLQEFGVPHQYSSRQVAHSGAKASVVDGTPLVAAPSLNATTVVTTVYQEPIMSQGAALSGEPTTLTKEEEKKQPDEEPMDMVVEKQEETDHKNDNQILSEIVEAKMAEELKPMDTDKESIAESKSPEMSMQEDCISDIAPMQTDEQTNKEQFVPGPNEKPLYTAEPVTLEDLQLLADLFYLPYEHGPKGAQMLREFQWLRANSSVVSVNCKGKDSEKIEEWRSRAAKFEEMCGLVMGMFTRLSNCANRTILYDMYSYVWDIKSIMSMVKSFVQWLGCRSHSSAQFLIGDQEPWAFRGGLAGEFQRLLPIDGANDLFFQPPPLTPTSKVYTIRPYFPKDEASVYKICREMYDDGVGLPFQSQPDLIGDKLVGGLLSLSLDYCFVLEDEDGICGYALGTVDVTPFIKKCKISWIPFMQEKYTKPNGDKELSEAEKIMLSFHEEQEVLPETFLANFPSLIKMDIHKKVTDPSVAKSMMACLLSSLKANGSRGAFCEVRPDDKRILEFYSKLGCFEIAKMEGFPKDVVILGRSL
As to the kind of experiment: OGA biochemical assay (inhibition of FM-GlcNAc hydrolysis, fluorescence). The note with it: for IC50: Enzymatic hOGA; for Emax: read-out: Enzymatic Emax (%); for Enzymatic hOGA; pIC50: Table 5. Here is the method:
The hydrolysis FM-GlcNAc (Marker Gene technologies, cat #M1485) results in the formation of β-D-N-glucosamineacetate and fluorescein. The fluorescence of the latter can be measured at excitation wavelength 485 nm and emission wavelength 538 nm. An increase in enzyme activity results in an increase in fluorescence signal. Full length OGA enzyme was purchased at OriGene (cat #TP322411). The enzyme was stored in 25 mM Tris.HCl, pH 7.3, 100 mM glycine, 10% glycerol at −20° C. […] The assay was performed in 200 mM Citrate/phosphate buffer supplemented with 0.005% Tween-20. 35.6 g Na2HIPO42H2O (Sigma, #C0759) were dissolved in 1 L water to obtain a 200 mM solution. […] The buffer to stop the reaction consists of a 500 mM Carbonate buffer, pH 11.0. […] OGA was used at a 2 nM concentration and FM-GlcNAc at a 100 uM final concentration. Dilutions were prepared in assay buffer.
Plates were pre-incubated for 60 min at room temperature and then 2 μl FM-GlcNAc substrate mix added. […] Plates were briefly centrifuged for 1 min at 1000 rpm and incubate at room temperature for 6 h. To stop the reaction 5 μl STOP buffer were added and plates centrifuge again 1 min at 1000 rpm. Fluorescence was quantified in the Thermo Scientific Fluoroskan Ascent or the PerkinElmer EnVision with excitation wavelength 485 nm and emission wavelength 538 nm.
For analysis a best-fit curve is fitted by a minimum sum of squares method. From this an IC50 value and Hill coefficient was obtained. High control (no inhibitor) and low control (saturating concentrations of standard inhibitor) were used to define the minimum and maximum values.

Data set [2] deals with T2, hOGA (Homo sapiens, UniProt O60502).
T2 construct: endogenous in cells; host or cells: HEK293 cells inducible for P301L mutant human Tau (isoform 2N4R)
T2 sequence (O60502 1-916): T1 sequence (O60502 1-916)
Description: OGA cellular assay (ICC detection of O-GlcNAcylated proteins in HEK293 cells inducible for P301L mutant human Tau). Set-up: Emax: dose or concentration left out as unconfirmed. The data set is classed as cell-based. The note with it: for EC50: Cellular hOGA; for Emax: HEK293, read-out: Cellular Emax (%). Here is the method: HEK293 cells inducible for P301L mutant human Tau (isoform 2N4R) were established at Janssen. Thiamet-G was used for both plate validation (high control) and as reference compound (reference EC50 assay validation). OGA inhibition is evaluated through the immunocytochemical (ICC) detection of O-GlcNAcylated proteins by the use of a monoclonal antibody (CTD110.6; Cell Signaling, #9875) detecting O-GlcNAcylated residues as previously described (Dorfmueller et al. 2010 Chemistry & biology, 17:1250). Inhibition of OGA will result in an increase of O-GlcNAcylated protein levels resulting in an increased signal in the experiment. Cell nuclei are stained with Hoechst to give a cell culture quality control and a rough estimate of immediate compounds toxicity, if any. ICC pictures are imaged with a Perkin Elmer Opera Phenix plate microscope and quantified with the provided software Perkin Elmer Harmony 4.1.
Cells were propagated in DMEM high Glucose (Sigma, #D5796) following standard procedures. 2 days before the cell assay cells are split, counted and seeded in Poly-D-Lysine (PDL) coated 96-wells (Greiner, #655946) plate at a cell density of 12,000 cells per cm^2 (4,000 cells per well) in 100 μl of Assay Medium (Low Glucose medium is used to reduce basal levels of GlcNAcylation) (Park et al. 2014 The Journal of biological chemistry 289:13519). At the day of compound test medium from assay plates was removed and replenished with 90 μl of fresh Assay Medium. 10 μl of compounds at a 10 fold final concentration were added to the wells. Plates were centrifuged shortly before incubation in the cell incubator for 6 hours. DMSO concentration was set to 0.2%. Medium is discarded by applying vacuum. For staining of cells medium was removed and cells washed once with 100 μl D-PBS (Sigma, #D8537). From next step onwards unless other stated assay volume was always 50 μl and incubation was performed without agitation and at room temperature. Cells were fixed in 50 μl of a 4% paraformaldehyde (PFA, Alpha aesar, #043368) PBS solution for 15 minutes at room temperature. […] Before analysis samples were washed 2 times manually for 5 minutes in ICC base buffer.
Imaging is performed using Perkin Elmer Phenix Opera using a water 20× objective and recording 9 fields per well. Intensity readout at 488 nm is used as a measure of O-GlcNAcylation level of total proteins in wells. To assess potential toxicity of compounds nuclei were counted using the Hoechst staining. IC50-values are calculated using parametric non-linear regression model fitting. As a maximum inhibition Thiamet Gat a 200 uM concentration is present on each plate. In addition, a concentration response of Thiamet G is calculated on each plate.

Where [3] appears, read: pIC50, Table 5, full length OGA 2 nM, FM-GlcNAc 100 uM, 6 h at room temperature.
Setting [4] is: pEC50, Table 5, HEK293 P301L Tau cells, 6 hours incubation, O-GlcNAcylation readout.
[5] abbreviates: full length OGA 2 nM, FM-GlcNAc 100 uM, 6 h at room temperature.
The mark [6] stands for this setting: Table 5, HEK293 P301L Tau cells, 6 hours incubation, O-GlcNAcylation readout.

Take `Cc1cc(F)cc(C)c1Nc1nccc2c1ncn2CC(=O)N(C)C` [Compound 20]: the melting point stood at 216.7 °C. Further, the IC50 in data set [1] (setting [3]) was 18.6 nM. For the same compound, in data set [1], the Emax came to 98%. This compound had an EC50 in data set [2] (setting [4]) of 170 nM. Further, in data set [2], the Emax was found to be 83%.
Taken in the same sequence, the figures for `CCCCn1cnc2c(Nc3c(C)cc(F)cc3C)nccc21` [Compound 57] were 184.45 °C, 53.7 nM, 99%, 513 nM and 62%.
Taken in the same sequence, the figures for `COc1cccc(-n2nc(C)c(Nc3nccc4c3ncn4CC(=O)N(C)C)c2C)c1` [Compound 36] were 179.7 °C, 29.5 nM, 101%, 603 nM and 55%.
With `Cc1cc(C(F)(F)F)cc(C)c1Nc1nccc2c1ncn2C(C)(C)C(=O)N(C)C` [Compound 71], the melting point is 260.1 °C. Moreover, the “Enzymatic hOGA; pIC50” value in data set [1] (setting [5]) was <5. Also, the Emax in data set [1] turned out to be 6%. The Emax in data set [2] was 27%. Besides, the “Cellular hOGA; pEC50” value in data set [2] (setting [6]) is reported as <6. Also, the “Cellular hOGA; pEC50” value in data set [2] (second table, averaged values over several runs, obtained after recalibration of the equipment) is <6.
Turning to `Cc1ccnc(C(C)C)c1Nc1nccc2c1cnn2CC(=O)N(C)C` [Compound 65, 2-[4-[(2-Isopropyl-4-methyl-3-pyridyl)amino]pyrazolo[4,3-c]pyridin-1-yl]-N,N-dimethyl-acetamide], the melting point came to 211.5 °C. Further, the IC50 in data set [1] (setting [3]) is 174 nM. In addition, the Emax in data set [1] turned out to be 97%. Also, in data set [2] (setting [4]), the EC50 was > 1000 nM. Moreover, in data set [2], the maximal response (Emax) was found to be 24%.
Taken in the same sequence, the figures for `Cc1cc(F)cc(F)c1Nc1nccc2c1ncn2CC(C)(F)F` [Compound 3] were 174.99 °C, 25.7 nM, 101%, 741 nM and 57%.
The compound `Cc1cc(C(F)(F)F)cc(C)c1Nc1ncc(C2CC2)c2c1ncn2CC(=O)N(C)C` [Compound 75] had a melting point of 246.7 °C. In addition, the “Enzymatic hOGA; pIC50” value in data set [1] (setting [5]) worked out at 6.28. In addition, the Emax in data set [1] was 97%. In addition, in data set [2], the Emax is 22%. For the same compound, the “Cellular hOGA; pEC50” value in data set [2] (setting [6]) is listed as <6.
On to `Cc1cc(C(F)(F)F)cc(F)c1Nc1nccc2c1ncn2CC(=O)N(C)CC(F)(F)F`, for which the melting point worked out at 238.3 °C.
Turning to `Cc1ccnc(C(C)C)c1Nc1nccc2c1ncn2CC(C)(F)F` [Compound 1, 1-(2,2-Difluoropropyl)-N-(2-isopropyl-4-methylpyridin-3-yl)-1H-imidazo[4,5-c]pyridin-4-amine], in data set [1] (setting [3]), the IC50 was 5.13 nM. Moreover, the Emax in data set [1] worked out at 101%; in data set [2] it was 81%. The EC50 in data set [2] (setting [4]) was 45.7 nM.
`CCCCn1ncc2c(Nc3c(Cl)cccc3Cl)nccc21` [Compound 66, 1-Butyl-N-(2,6-dichlorophenyl)pyrazolo[4,3-c]pyridin-4-amine] displayed a melting point of 144.7 °C. Also, in data set [1] (setting [3]), the IC50 was 85.1 nM. In addition, the Emax in data set [1] turned out to be 104%. For the same compound, in data set [2] (setting [4]), the EC50 is > 1000 nM. In addition, in data set [2], the Emax is 45%.
In the same order, the values of `Cc1cc2c(cnn2C)c(C)c1Nc1nccc2c1ncn2CC(=O)N(C)C` [Compound 13] are 265.1 °C, 13.8 nM, 98%, 69.2 nM and 113%.
On to `CCCCn1ncc2c(Nc3c(Cl)cncc3Cl)nccc21` [Compound 67], for which the IC50 in data set [1] (setting [3]) was 513 nM. In addition, the Emax in data set [1] amounted to 94%; in data set [2], 6%. For the same compound, in data set [2] (setting [4]), the EC50 is > 1000 nM.
Consider `[2H]C([2H])([2H])N(C)C(=O)Cn1cnc2c(Nc3c(C)cc(C(F)(F)F)cc3C)nccc21`, for which the melting point turned out to be 212.2 °C.
On the same count and under the same terms, to `Cc1cc(C(F)(F)F)cc(F)c1Nc1nccc2c1ncn2CC(=O)N(C)C1CC1` belongs 219.8 °C.
With `CCCCn1cnc2c(Nc3c(Cl)cncc3Cl)nccc21` [Compound 58], in data set [1] (setting [3]), the IC50 was 525 nM. In addition, the Emax in data set [1] amounted to 95%.
Take `Cc1cc(C(F)(F)F)nc(C)c1Nc1nccc2c1ncn2CC(=O)N1CCC1` [Compound 51]: the IC50 in data set [1] (setting [3]) is 1480 nM. The figures for the maximal effect (Emax) in data set [1] and in data set [2] were 82% and 15%, respectively. In data set [2] (setting [4]), the EC50 was > 1000 nM.
In the case of `Cc1cc(C(F)(F)F)cc(C)c1Nc1nccc2c1ncn2-c1ncn(C)c1C` [Compound 83], the IC50 in data set [1] (pIC50, second table, averaged values over several runs, obtained after recalibration of the equipment) was 1170 nM. In addition, the EC50 in data set [2] (pEC50, second table, averaged values over several runs, obtained after recalibration of the equipment) was > 1000 nM.
Consider `Cc1cc(F)cc(F)c1Nc1nccc2c1ncn2CC(=O)N(C)C` [Compound 26], for which the IC50 in data set [1] (setting [3]) is 191 nM. The figures for the Emax in data set [1] and in data set [2] were 98% and 8%, respectively. Further, in data set [2] (setting [4]), the EC50 is > 1000 nM.
In the case of `CCCCn1ncc2c(Nc3c(C)cncc3C)nccc21` [Compound 68], the half-inhibitory concentration (IC50) in data set [1] (setting [3]) was 7590 nM. The maximal response (Emax) in data set [1] was found to be 61%.
As to `Cc1cc(C(F)(F)F)cc(Cl)c1Nc1nccc2c1ncn2CC(C)(F)F` [Compound 2], the IC50 in data set [1] (setting [3]) is 6.03 nM. Further, the Emax in data set [1] amounted to 99%; in data set [2], 87%. The compound also had an EC50 in data set [2] (setting [4]) of 95.5 nM.

By IC50 is commonly meant the concentration that gives 50% inhibition. By Emax is commonly meant the greatest response seen or fitted, relative to the assay's reference. Usually EC50 stands for the midpoint of the concentration-response curve. What is called melting point is the temperature of the solid-liquid transition.
